Experiments:
[1] = test system: IL-6 production from CEPI-17 cells; assay: Inhibition of hyperosmolarity-induced IL-6 production from human corneal epithelial cells in vitro; assay type: cell-based; details: Corneal epithelial cell, 1 hour pre-treatment, hypertonic KGM-HC (additional 80 mM NaCl) 6 hours, ELISA, normalized by dsDNA
Description: (§1) Inhibition of Hyperosmolarity-Induced Cytokine Production from Human Corneal Epithelial Cells in vitro.
(§2) The ocular tear film in dry eye is abnormally hyperosmolar, which is irritating to ocular surface cells. Treatment of human conjunctival epithelial cells with a hypertonic media elicits the production of pro-inflammatory cytokines. A selective JNK inhibitor, anthra[1,9-cd]pyrazol-6(2H)-one, was evaluated for inhibition of hyperosmolarity-induced cytokine secretion from the transformed human corneal epithelial cell line, CEPI-17.CEPI-17 cells were grown in complete isotonic Keratinocyte Growth Medium (iso KGM) and plated in 48-well plates in iso KGM without hydrocortisone (iso KGM-HC). When the cells reached confluence, they were pre-treated for 1 hour with the compound at the indicated concentration in iso KGM-HC. The cells were then stimulated by hypertonic KGM-HC for 6 hours (additional 80 mM NaCl added in iso KGM-HC) in the presence of the compound. Aliquots of the supernatants were assayed for IL-6,IL-8 by ELISA. Cytokine release was normalized by the amount of double stranded DNA (dsDNA) extracted from the cells. Percent inhibition of cytokine production was calculated by comparison with cytokine levels in vehicle-treated cells.

[2] = test system: IL-8 production from CEPI-17 cells; assay: Inhibition of hyperosmolarity-induced IL-8 production from human corneal epithelial cells in vitro; assay type: cell-based; details: Corneal epithelial cell, 1 hour pre-treatment, hypertonic KGM-HC (additional 80 mM NaCl) 6 hours, ELISA, normalized by dsDNA
Description: as §1, §2

SMILES: O=C1c2ccccc2-c2n[nH]c3cccc1c23 [SP-600125, anthra[1,9-cd]pyrazol-6(2H)-one]
- IC50 [1]: 12.6 µM
- IC50 [2]: 3.7 µM

— patent US7026296B2, “Methods of treating dry eye disorders” (Alcon, Inc., priority 2002, dated 2006)
